Laboratory results reported in PubChem BioAssay AID248 (DTP/NCI, 2004).
Several values for one entry are separate records, joined by “and”; a condition that tells them apart may be missing. Equal values may be shown once. Toxic doses and inconclusive results are not listed. Rule as the data show it: active = T/C of 150% or more; inactive = T/C below 125%.

System: L1210 leukemia ip in BDF1 mice, survival T/C
Experiment: NCI In Vivo Anticancer Drug Screen. Data for tumor model L1210 Leukemia (intraperitoneal) in B6D2F1 (BDF1) mice
Settings: endpoint: mean survival time, higher = longer survival
Outline: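 Mice bearing the transplanted tumor received compound or vehicle. Survival of the treated group was divided by that of the vehicle-treated control group to give the ratio.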

[1] = dose: 100.0 mg/kg/injection, schedule: Q04DX003 (ip), vehicle: saline with Tween-80
[2] = dose: 200.0 mg/kg/injection, schedule: Q04DX003 (ip), vehicle: saline with Tween-80
[3] = dose: 400.0 mg/kg/injection, schedule: Q04DX003 (ip), vehicle: saline with Tween-80
[4] = dose: 100.0 mg/kg/injection, schedule: Q01DX001 (ip), vehicle: saline
[5] = dose: 200.0 mg/kg/injection, schedule: Q01DX001 (ip), vehicle: saline
[6] = dose: 400.0 mg/kg/injection, schedule: Q01DX001 (ip), vehicle: saline
[7] = dose: 50.0 mg/kg/injection, schedule: Q01DX009 (ip), vehicle: Klucel (hydroxypropylcellulose) (HPC)
[8] = dose: 200.0 mg/kg/injection, schedule: Q01DX009 (ip), vehicle: Klucel (hydroxypropylcellulose) (HPC)
[9] = dose: 100.0 mg/kg/injection, schedule: Q04DX003 (ip), vehicle: saline
[10] = dose: 200.0 mg/kg/injection, schedule: Q04DX003 (ip), vehicle: saline
[11] = dose: 400.0 mg/kg/injection, schedule: Q04DX003 (ip), vehicle: saline
[12] = dose: 100.0 mg/kg/injection, schedule: Q01DX001 (ip), vehicle: carboxymethylcellulose (CMC)
[13] = dose: 200.0 mg/kg/injection, schedule: Q01DX001 (ip), vehicle: carboxymethylcellulose (CMC)
[14] = dose: 400.0 mg/kg/injection, schedule: Q01DX001 (ip), vehicle: carboxymethylcellulose (CMC)

Measured: T/C

CC(C)CCCC(C)CCC1C(=O)NC(=O)NC1=O (configuration not stated)
inactive: dose: 75.0 mg/kg/injection, schedule: Q01DX001 (ip), vehicle: saline 90 % of control | dose: 150.0 mg/kg/injection, schedule: Q01DX001 (ip), vehicle: saline 88 % of control

Nc1nc(SCc2ccccc2)c2nnn(C3OC(CO)C(O)C3O)c2n1 (configuration not stated)
inactive: dose: 100.0 mg/kg/injection, schedule: Q01DX001 (ip), vehicle: saline with Tween-80 101 % of control | dose: 200.0 mg/kg/injection, schedule: Q01DX001 (ip), vehicle: saline with Tween-80 96 % of control | dose: 400.0 mg/kg/injection, schedule: Q01DX001 (ip), vehicle: saline with Tween-80 111 % of control

OC(Cc1cc(CC(O)(C(F)(F)F)C(F)(F)F)n(-c2ccccc2)n1)(C(F)(F)F)C(F)(F)F
inactive: [1] 97 % of control | [2] 97 % of control | [3] 95 % of control

CCCCSc1nc(=O)[nH]nc1SCc1ccccc1
inactive: [4] 98 % of control | [5] 93 % of control | [6] 95 % of control

CCOc1nn2nnnc2c2ccccc12
inactive: dose: 37.5 mg/kg/injection, schedule: Q04DX003 (ip), vehicle: saline with Tween-80 97 % of control | dose: 75.0 mg/kg/injection, schedule: Q04DX003 (ip), vehicle: saline with Tween-80 97 % of control | dose: 150.0 mg/kg/injection, schedule: Q04DX003 (ip), vehicle: saline with Tween-80 103 % of control

CCOc1c[n+](C)c(/C=C/c2ccccc2)s1
inactive: dose: 5.0 mg/kg/injection, schedule: Q01DX001 (ip), vehicle: carboxymethylcellulose (CMC) 108 % of control | dose: 10.0 mg/kg/injection, schedule: Q01DX001 (ip), vehicle: carboxymethylcellulose (CMC) 97 % of control | dose: 20.0 mg/kg/injection, schedule: Q01DX001 (ip), vehicle: carboxymethylcellulose (CMC) 94 % of control | dose: 40.0 mg/kg/injection, schedule: Q01DX001 (ip), vehicle: carboxymethylcellulose (CMC) 103 % of control

Cn1nc(CC(=O)O)c(C(N)=O)c1N
inactive: dose: 12.5 mg/kg/injection, schedule: Q01DX009 (ip), vehicle: Klucel (hydroxypropylcellulose) (HPC) 93 % of control | dose: 25.0 mg/kg/injection, schedule: Q01DX009 (ip), vehicle: Klucel (hydroxypropylcellulose) (HPC) 101 % of control | [7] 96 % of control and 102 % of control | [8] 98 % of control

Cc1ccc(SSc2ccc(C)cc2)cc1
inactive: dose: 75.0 mg/kg/injection, schedule: Q01DX009 (ip), vehicle: saline 108 % of control | [9] 101 % of control | [10] 103 % of control | [11] 88 % of control

C=CCOC(=O)Nc1ccc(S(=O)(=O)NC2CCCCC2)cc1
inactive: [4] 92 % of control | [5] 94 % of control | [6] 97 % of control

CC(C)C(=O)c1ccc(Cl)s1
inactive: dose: 100.0 mg/kg/injection, schedule: Q04DX003 (sc), vehicle: olive oil, sesame oil, peanut oil 104 % of control | dose: 200.0 mg/kg/injection, schedule: Q04DX003 (sc), vehicle: olive oil, sesame oil, peanut oil 107 % of control | dose: 400.0 mg/kg/injection, schedule: Q04DX003 (sc), vehicle: olive oil, sesame oil, peanut oil 96 % of control

CCC1COC(Nc2cccc3c2CCCC3)=N1 (configuration not stated)
inactive: dose: 50.0 mg/kg/injection, schedule: Q04DX003 (ip), vehicle: saline with Tween-80 92 % of control | [1] 92 % of control | [2] 92 % of control

Cc1ccc(C)c(NC(=O)Oc2ccc(F)cc2Cl)c1
inactive: [7] 91 % of control | dose: 100.0 mg/kg/injection, schedule: Q01DX009 (ip), vehicle: Klucel (hydroxypropylcellulose) (HPC) 90 % of control | dose: 100.0 mg/kg/injection, schedule: Q04DX003 (ip), vehicle: Klucel (hydroxypropylcellulose) (HPC) 94 % of control | [8] 87 % of control | dose: 200.0 mg/kg/injection, schedule: Q04DX003 (ip), vehicle: Klucel (hydroxypropylcellulose) (HPC) 105 % of control

CC(C)(C)OB(OC(C)(C)C)OC(C)(C)C
inactive: dose: 25.0 mg/kg/injection, schedule: Q01DX009 (ip), vehicle: other 105 % of control | dose: 50.0 mg/kg/injection, schedule: Q01DX009 (ip), vehicle: other 98 % of control | dose: 100.0 mg/kg/injection, schedule: Q01DX009 (ip), vehicle: other 109 % of control | [9] 98 % of control | dose: 200.0 mg/kg/injection, schedule: Q01DX009 (ip), vehicle: other 104 % of control | [10] 102 % of control | [11] 109 % of control

Cc1cc(/C=N/N=c2\[nH][nH]/c(=N\N=C\c3cc(C)n(-c4ccccc4)c3C)c3ccccc23)c(C)n1-c1ccccc1
inactive: dose: 50.0 mg/kg/injection, schedule: Q01DX001 (ip), vehicle: saline 97 % of control | [4] 97 % of control | [5] 92 % of control | [6] 103 % of control

CC1(c2ccccc2)CCc2ccccc21 (configuration not stated)
inactive: [1] 100 % of control | [2] 98 % of control | [3] 98 % of control

CC(CCOC(=O)c1ccccc1)=C(c1ccccc1)c1ccccc1
inactive: dose: 100.0 mg/kg/injection, schedule: Q04DX002 (ip), vehicle: Klucel (hydroxypropylcellulose) (HPC) 107 % of control | dose: 200.0 mg/kg/injection, schedule: Q04DX002 (ip), vehicle: Klucel (hydroxypropylcellulose) (HPC) 95 % of control | dose: 400.0 mg/kg/injection, schedule: Q04DX002 (ip), vehicle: Klucel (hydroxypropylcellulose) (HPC) 95 % of control

CC1(C)CN1P(=O)(Oc1ccccc1)N1CC1(C)C (configuration not stated)
inactive: dose: 88.0 mg/kg/injection, schedule: Q01DX001 (ip), vehicle: carboxymethylcellulose (CMC) 111 % of control

COC(=O)CCCCC(=O)OC
inactive: dose: 100.0 mg/kg/injection, schedule: Q01DX009 (ip), vehicle: saline with Tween-80 103 % of control | dose: 200.0 mg/kg/injection, schedule: Q01DX009 (ip), vehicle: saline with Tween-80 102 % of control | dose: 400.0 mg/kg/injection, schedule: Q01DX009 (ip), vehicle: saline with Tween-80 102 % of control

CC(=O)Nc1c(Cl)cc2c(c1Cl)Cc1c-2cc(Cl)c(NC(C)=O)c1Cl
inactive: [1] 93 % of control | [2] 93 % of control | [3] 101 % of control

Cc1cc(-n2cnc3c(Cl)ncnc32)ccc1[N+](=O)[O-]
inactive: dose: 50.0 mg/kg/injection, schedule: Q01DX001 (ip), vehicle: carboxymethylcellulose (CMC) 110 % of control | [12] 101 % of control | [13] 98 % of control | [14] 112 % of control

O=c1[nH]c2cc(Cl)cc(Cl)c2c2ccc(Cl)cc12
inactive: [12] 100 % of control | [13] 96 % of control | [14] 89 % of control

CCOc1ccc(Br)cc1/C=N\NC(=O)c1ccccc1N(C)C
inactive: dose: 100.0 mg/kg/injection, schedule: Q04DX002 (ip), vehicle: gum acacia 90 % of control | dose: 200.0 mg/kg/injection, schedule: Q04DX002 (ip), vehicle: gum acacia 100 % of control | dose: 400.0 mg/kg/injection, schedule: Q04DX002 (ip), vehicle: gum acacia 90 % of control

O=C1c2ccccc2C(=O)N1NS(=O)c1ccccc1 (configuration not stated)
inactive: dose: 100.0 mg/kg/injection, schedule: Q04DX002 (ip), vehicle: saline with Tween-80 93 % of control | dose: 200.0 mg/kg/injection, schedule: Q04DX002 (ip), vehicle: saline with Tween-80 104 % of control | dose: 400.0 mg/kg/injection, schedule: Q04DX002 (ip), vehicle: saline with Tween-80 101 % of control
